# Test results as given in article PMC11767423, “Design, Synthesis, and Antioxidant and Anti-Tyrosinase Activities of (Z)-5-Benzylidene-2-(naphthalen-1-ylamino)thiazol-4(5H)-one Analogs: In Vitro and In Vivo Insights” (Molecules, 2025).
# How the values were obtained:
# [1] = Assay for DPPH radical scavenging; conditions: 500 μM; 30 min in the dark
# Method: To evaluate the DPPH radical-scavenging efficacy of 1–15, a DPPH methanol solution was mixed with compounds 1–15, and the mixture was left in the dark. After 30 min, the radical-scavenging efficacy of each compound was determined by measuring the optical density at 517 nm. Vitamin C (L-ascorbic acid) was used for comparing radical-scavenging activity, and all test samples were treated at 500 μM.
# DPPH was dissolved in methanol to prepare a 0.2 mM solution, and test samples (vitamin C [L-ascorbic acid, LA; positive control] and 1–15) were dissolved in DMSO to prepare a 5 mM solution. The DPPH methanolic solution (180 μL) was added to the test sample DMSO solution (20 μL) in each well of a 96-well microplate and kept in a place without light for 30 min at 22 °C. Using a VersaMax™ ELISA reader, the optical density of each well was recorded at 517 nm to determine DPPH radical-scavenging activity.
# [2] = Assay for ABTS+ radical scavenging; conditions: 100 μM
# Method: The ABTS^+-scavenging efficacy of compounds 1–15 was determined by oxidizing ABTS with K2S2O8 to prepare ABTS^+. The prepared ABTS^+ solution was mixed with the test samples (1–15 and Trolox, a positive control) and the radical-scavenging efficacy of the test samples was explored by measuring the decrease in optical density at 732 nm. All test samples were tested at 100 μM.
# To acquire ABTS^+ radicals, ABTS (14 mM in 20 mL H2O) was mixed with K2S2O8 (4.9 mM in 20 mL H2O), an oxidant agent, and stored at 22 °C in a place without light for 15 h. The absorbance of the prepared ABTS^+ radical solution was adjusted to 0.70 ± 0.01 at 732 nm by adding methanol. Test samples (Trolox [positive control] and 1–15) were dissolved in a co-solvent (DMSO:EtOH = 1:10 [v/v]). The diluted ABTS^+ radical solution (90 μL) was added to the test sample solution (10 μL) in each well of a 96-well plate and held at 22 °C in the dark for 2 min. The optical density of each well was recorded at 732 nm every 1 min for 10 min using an ELISA reader. The final concentration of test samples was 100 μM. %Radical-scavenging activity was determined using the formula 100 × [(Abscon − Abssam)/Abscon], where Abscon and Abssam represent the optical densities of the control and the samples, respectively.
# mushroom tyrosinase = mushroom tyrosinase (Agaricus bisporus, UniProt C7FF04); assay: Kinetic experiment using mushroom tyrosinase (Lineweaver–Burk and Dixon plots); assay type: biochemical; conditions: for Ki: Dixon plots, substrate L-DOPA; for inhibition mechanism: Lineweaver–Burk plots, L-DOPA 1–16 mM
# Chain of mushroom tyrosinase (C7FF04 1-392): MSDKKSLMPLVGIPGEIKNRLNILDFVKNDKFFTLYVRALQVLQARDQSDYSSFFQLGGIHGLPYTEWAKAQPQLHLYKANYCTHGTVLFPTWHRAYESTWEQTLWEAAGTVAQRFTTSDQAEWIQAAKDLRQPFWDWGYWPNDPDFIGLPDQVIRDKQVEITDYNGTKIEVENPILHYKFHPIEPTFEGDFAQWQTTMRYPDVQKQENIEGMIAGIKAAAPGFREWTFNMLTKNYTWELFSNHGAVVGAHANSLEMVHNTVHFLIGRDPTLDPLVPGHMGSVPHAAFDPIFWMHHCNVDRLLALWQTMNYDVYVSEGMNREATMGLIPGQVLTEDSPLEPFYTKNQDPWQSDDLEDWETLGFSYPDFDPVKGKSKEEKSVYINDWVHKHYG
# Method: The plots for inhibitors 10 and 15 were obtained by measuring the initial rate of dopachrome production in the presence of various L-DOPA substrate concentrations (Figure 3A,C). For the kinetic experiments, compounds 10 and 15 were used at 0, 1, 2, and 4 μM and at 0, 4, 8, and 16 μM, respectively.
# Ki, known as the dissociation constant or inhibition constant, describes the binding affinity between the enzyme and inhibitor. […] Dixon plots were acquired by plotting the inverse of the initial dopachrome formation rate against the inhibitor concentration (Figure 3B,D). Each Dixon plot produces four lines that merge at one point in the second quadrant. The absolute value of the x co-ordinate of the merge point represents the Ki value. […] The lower the Ki value, the stronger the binding affinity. Thus, compound 10 bound more strongly to the tyrosinase active site than compound 15.
# The identification of the tyrosinase inhibition mechanism was carried out by kinetic studies using mushroom tyrosinase. Test samples (10 μL; compounds 10 and 15) were mixed with a mushroom tyrosinase aqueous solution (20 μL; 100 units/mL) and a substrate solution (170 μL; substrate [L-DOPA] and 17.2 mM sodium phosphate pH 6.5 buffer) in each well of 96-well microplate. To obtain Lineweaver–Burk plots for kinetic analysis, L-DOPA and test samples were used at various concentrations: 0, 1, 2, and 4 μM for 10; 0, 4, 8, and 16 μM for 15; and 1, 2, 4, 8, and 16 mM for L-DOPA. During a 30 min incubation period, the initial dopachrome formation rate was calculated by measuring the optical density at 475 nm at 5 min intervals using an ELISA reader. Lineweaver–Burk plots were prepared by plotting the inverse of the substrate concentration against the inverse of the initial dopachrome formation rate in the presence of four different concentrations of compounds 10 and 15.
# [3] = test system: tyrosinase activity of zebrafish larvae; assay: Tyrosinase activity in zebrafish larvae; assay type: in vivo, Danio rerio; conditions: 76 hpf
# Method: To quantify the tyrosinase activity in zebrafish larvae, 60 zebrafish larvae at 76 hpf were divided into three Eppendorf tubes and centrifuged at 10,000× g for 10 min at 4 °C. After removing the supernatant, the residue was lysed using radioimmunoprecipitation assay buffer (100 μL) (Biosedang, Gyeonggi-do, Republic of Korea) and homogenized for 5 min using a sonicator. The lysate was centrifuged at 10,000× g for 10 min at 4 °C. The supernatants were transferred to a new Eppendorf tube and the protein content was quantified using a bicinchoninic acid protein assay kit (Thermo Fisher Scientific, Waltham, MA, USA). An aliquot (100 μL) of 1 mM L-DOPA was added to the new Eppendorf tube containing a total of 300 μg of protein in 100 μL of protein lysate. Eppendorf tubes were incubated for 1 h at 37 °C and then transferred to each well of a 96-well plate. The absorbance of each well was measured at 475 nm to determine the tyrosinase activity of zebrafish larvae.
# zebrafish larvae = assay: Zebrafish depigmentation assay using zebrafish embryos; assay type: in vivo, Danio rerio; conditions: 0.1 mM vs kojic acid 20 mM; treated at 28 hpf, read at 76 hpf
# Method: Zebrafish embryos were used to determine whether the synthesized compounds could inhibit melanin synthesis in vivo. […] The degree of depigmentation in zebrafish larvae was confirmed by photography 48 h later (Figure 8A). The density of the zebrafish larvae was measured using a CS analyzer 3.2 (Atto, Tokyo, Japan). […] To obtain zebrafish (wild type, Danio rerio) eggs for the experiment, six male and nine female zebrafish were raised separately in oxygen-connected tanks. Dried brine shrimp (Artemia salina, San Francisco Bay Brand, San Francisco, CA, USA) were fed as food three times per day. They were raised at 28 °C with 10 h of light blocking and 14 h of light exposure. The evening before obtaining zebrafish eggs, three females and two males were placed together in three zebrafish mating cages, and the light was blocked. The following morning, mating was induced by exposure to light. Harvested zebrafish eggs, obtained free of charge from the Zebrafish Center for Disease Modeling (Chungnam National University, Daejeon, Republic of Korea), were kept in an E3 embryonic solution containing methylene blue (MB) until the dechorionation process was performed. […] The pigmented areas in the zebrafish larval photographs were determined using an ATTO CS analyzer 3.2 (Tokyo, Japan).
# B16F10 cells [4] = assay: Cell viability on B16F10 cells (EZ-Cytox); assay type: cell-based; conditions: 72 h; for B16F10 cell viability: 1, 2, 5, 10 and 20 μM
# Method: Therefore, we investigated whether these compounds exert tyrosinase inhibitory activity in B16F10 mammalian cells. We examined the effects of these compounds on B16F10 cell viability. Cell viability was assessed for 72 h at five concentrations (1, 2, 5, 10, and 20 μM) of compounds 10 and 15.
# The viability of B16F10 cells in the presence of compounds 10 and 15 was assayed. A 96-well microplate containing 1 × 10^3 B16F10 cells per well was incubated at 37 °C in a humid environment containing 5% CO2 for 24 h. Test samples (10 and 15) were added to each well at concentrations of 0, 1, 2, 5, 10, and 20 μM and incubated for 72 h. Each well was exposed to a 10 μL EZ-Cytox solution (EZ-500®, DoGenBio, Seoul, Republic of Korea) and incubated for 2 h. To determine cell viability, well optical density was measured at 450 nm using an ELISA reader.
# B16F10 cells [5] = assay: Melanin content assay in B16F10 cells; assay type: cell-based; conditions: α-MSH + IBMX, 72 h
# Method: After 72 h, the effect of compound 10 on melanin biosynthesis was determined. A 6-well microplate containing 5 × 10^3 B16F10 cells per well was incubated at 37 °C for 24 h. Compound 10 was added to each well at 5, 10, and 20 μM and incubated for 1 h, and then stimulators (1 μM α-MSH and 200 μM IBMX) were added to each well before 72 h incubation. […] For the melanin content quantification, the cells were lysed at 60 °C for 1 h in 100 μL 1N-NaOH solution containing 10% DMSO after washing 2 times with phosphate-buffered saline (PBS). The cell lysates were transferred to a 96-well microplate and the optical density was measured at 405 nm using an ELISA reader to calculate the melanin content in each well.
# B16F10 cells [6] = assay: In situ cellular tyrosinase activity assay (L-DOPA staining); assay type: cell-based; conditions: α-MSH + IBMX, 72 h, then L-DOPA 2 h
# Method: The effect of 10 on cellular tyrosinase activity was investigated in situ using L-DOPA and B16F10 cells. This experimental method allows for the direct observation of cellular melanin production. […] After 72 h of incubation, the cells were treated with L-DOPA for 2 h to induce melanin production.
# A 24-well plate containing 1 × 10^3 B16F10 cells per well was incubated at 37 °C for 24 h. […] After incubation for 72 h, the cells were fixed for 50 min using paraformaldehyde (4%), rinsed twice with PBS, and permeabilized for 2 min using Triton X-100 (0.1%). The cells were washed with PBS and 500 μL of 2 mM L-DOPA solution was added. After the cells were incubated at 37 °C for 2 h, stained images were obtained using a camera connected to a microscope (Motic, Hong Kong, China).
# [7] = test system: B16F10 cellular tyrosinase; assay: Cellular tyrosinase activity assay in B16F10 cells; assay type: cell-based; conditions: α-MSH + IBMX, 72 h
# Method: We analyzed the effect of 10 on B16F10 cellular tyrosinase activity to determine whether the ability of 10 inhibiting melanogenesis results from its ability to inhibit cellular tyrosinase activity.
# A 6-well microplate containing 5 × 10^3 B16F10 cells per well was incubated at 37 °C for 24 h. Compound 10 was added to each well at 5, 10, and 20 μM and incubated for 1 h, and then stimulators (1 μM α-MSH and 200 μM IBMX) were added to each well before 72 h incubation.
# To measure the cellular tyrosinase activity, the cells incubated for 72 h were washed 2 times with PBS, exposed to a 100 μL lysis buffer solution containing 5 μL 2 mM phenylmethylsulfonyl fluoride, 5 μL 20% Triton X-100, and 90 μL 50 mM phosphate buffer (pH 6.5), and cultivated for 30 min at −80 °C. After the lysates were centrifuged at 4 °C for 10 min at 10,000× g, an aliquot (80 μL) of the supernatants was added to each well of a 96-well microplate containing 20 μL of 10 mM L-DOPA. Data for the optical density at 475 nm were obtained every 1 min for 10 min at 37 °C using an ELISA reader to determine cellular tyrosinase activity.
compound,measurement,setting,value
"CCOc1cc(/C=C2\SC(Nc3cccc4ccccc34)=NC2=O)ccc1O [Compound 7, (Z)-5-(3-Ethoxy-4-hydroxybenzylidene)-2-(naphthalen-1-ylamino)thiazol-4(5H)-one]",DPPH radical scavenging,[1],61%
"COc1cc(/C=C2\SC(Nc3cccc4ccccc34)=NC2=O)cc(OC)c1O [Compound 13, (Z)-5-(4-Hydroxy-3,5-dimethoxybenzylidene)-2-(naphthalen-1-ylamino)thiazol-4(5H)-one]",DPPH radical scavenging,[1],51%
same,ABTS+ scavenging,[2],97%
"COc1cc(/C=C2\SC(Nc3cccc4ccccc34)=NC2=O)ccc1O [Compound 5, (Z)-5-(4-Hydroxy-3-methoxybenzylidene)-2-(naphthalen-1-ylamino)thiazol-4(5H)-one]",DPPH radical scavenging,[1],62%
"O=C1O[C@H]([C@@H](O)CO)C(O)=C1O [Vitamin C, L-ascorbic acid, reference compound]",DPPH radical scavenging,[1],90%
"COc1ccc(/C=C2\SC(Nc3cccc4ccccc34)=NC2=O)cc1O [Compound 6, (Z)-5-(3-Hydroxy-4-methoxybenzylidene)-2-(naphthalen-1-ylamino)thiazol-4(5H)-one]",DPPH radical scavenging,[1],21%
"CC(C)(C)c1cc(/C=C2\SC(Nc3cccc4ccccc34)=NC2=O)cc(C(C)(C)C)c1O [Compound 14, (Z)-5-(3,5-Di-tert-butyl-4-hydroxybenzylidene)-2-(naphthalen-1-ylamino)thiazol-4(5H)-one]",DPPH radical scavenging,[1],68%
same,ABTS+ scavenging,[2],95%
"O=C1N=C(Nc2cccc3ccccc23)S/C1=C\c1ccc(O)c(Br)c1 [Compound 15, (Z)-5-(3-Bromo-4-hydroxybenzylidene)-2-(naphthalen-1-ylamino)thiazol-4(5H)-one]",Ki,mushroom tyrosinase,4.87 µM
same,inhibition mechanism,mushroom tyrosinase,compete with the substrates for binding to the active site of tyrosinase
same,tyrosinase activity of zebrafish larvae compared with kojic acid,[3]; 0.3 mM vs kojic acid 20 mM,"comparable to that of kojic acid, even at a concentration 70 times lower"
same,tyrosinase activity of zebrafish larvae,[3]; 0.1 and 0.3 mM,decreased tyrosinase activity in a concentration-dependent manner
same,depigmentation capacity in zebrafish larvae,zebrafish larvae,"depigmentation capacity similar to that of kojic acid, even at a concentration 200 times lower"
same,cytotoxicity in B16F10 cells,B16F10 cells [4]; 1 μM,significant cytotoxicity was observed
same,B16F10 cell viability,B16F10 cells [4],clearly reduced cell viability in a concentration-dependent manner
"O=C1N=C(Nc2cccc3ccccc23)S/C1=C\c1ccc(O)cc1O [Compound 10, (Z)-5-(2,4-Dihydroxybenzylidene)-2-(naphthalen-1-ylamino)thiazol-4(5H)-one]",Ki,mushroom tyrosinase,2.04 µM
same,inhibition mechanism,mushroom tyrosinase,compete with the substrates for binding to the active site of tyrosinase
same,stimulator-induced melanin content,"B16F10 cells [5]; 5 μM, kojic acid at 20 μM",reduced the stimulator-induced melanin content levels similarly to kojic acid
same,melanin content level,"B16F10 cells [5]; 20 μM, controls 100%",86%
same,stimulator-induced melanin content,"B16F10 cells [5]; 5, 10 and 20 μM",strongly reduced stimulator-induced melanin content dose-dependently
same,in situ melanin formation (L-DOPA staining),B16F10 cells [6]; 20 μM,reduced melanin formation to the level of the untreated control
same,in situ melanin formation (L-DOPA staining),"B16F10 cells [6]; 5, 10 and 20 μM",dose-dependently decreased melanin formation
same,DPPH radical scavenging,[1],51%
same,B16F10 cell viability,B16F10 cells [4],no perceptible effect on B16F10 cell viability
same,ABTS+ scavenging,[2],97%
same,cellular tyrosinase activity,[7]; 10 μM,slightly more potent tyrosinase inhibitory potency than kojic acid at 20 μM
same,cellular tyrosinase activity,[7]; 20 μM,reduced cellular tyrosinase activity to almost the level of cellular tyrosinase activity in the untreated control
same,cellular tyrosinase activity,"[7]; 5, 10 and 20 μM",dose-dependent decrease in cellular tyrosinase activity
